{"source": "patent US20240245051A1", "about": "“DISINFECTING, ANTIMICROBIAL AND PRESERVATIVE COMPOSITION” (BJBIOCHEM CO., LTD., priority 2021, published 2024)", "test_in_all_cases": "Antimicrobial test, broth dilution method (MIC)", "type_in_all_cases": "cell-based", "conditions_in_all_cases": "single compounds of Comparative Examples", "key": {"[1]": {"test_system": "A. niger", "protocol": "(§1) The antimicrobial activity of the test solution was measured using a broth dilution method. The concentration of the test solution that was treated was diluted from the highest concentration of 5% to the lowest concentration of 0.0001%. The test solution was cultured in the presence of the strain and then the turbidity of the tube was determined. […] After the primary test described as above, the concentration of the test solution that was treated was further subdivided and a secondary test was conducted to obtain an accurate minimum inhibitory concentration (MIC).\n(§2) Test strains E. coli, S. aureus, and P. aeruginosa were inoculated into tryptic soy broth and incubated at 35±2° C. for 16 to 24 hours. C. albicans was inoculated into Sabouraud dextrose broth and cultured at 35° C. for 24 hours. A. niger was seeded on potato dextrose agar and cultured at (25±1°) C for 7 days, sterile physiological saline was dispensed into a solid medium on which the bacteria grew, and spores were removed using a spreader and then diluted in sterile physiological saline.\n(§3) A liquid medium was put into the tube and the concentration of the test solution that was treated was diluted from the highest concentration of 5% to the lowest concentration of 0.0001%. The liquid media used for E. coli, S. aureus, and P. aeruginosa (bacteria) were tryptic soy broth, and the liquid media used for C. albicans, and A. niger (fungi) were Sabouraud dextrose broth.\n(§4) E. coli, S. aureus, and P. aeruginosa of the strains were inoculated at a concentration of 1×10^5 CFU/mL in the test tube. The tubes treated with the test solution were incubated at 35±2° C. for 16 to 24 hours. C. albicans and A. niger were inoculated at a concentration of 1×10^4 CFU/mL in the test tube. After treatment with the test solution was completed, C. albicans was cultured at 35° C. for 24 to 48 hours and A. niger was cultured at 25° C. for 46 to 50 hours. A medium tube, to which the bacterial solution was not added, was used as a negative control, and a tube containing the medium inoculated with only the bacterial solution without the test solution was used as a growth control. In addition, in order to determine the antimicrobial activity of dipropylene glycol itself used as a solvent, the MIC of the test bacteria for the solvent was measured under the same conditions as in the sample."}, "[2]": {"test_system": "P. aeruginosa", "protocol": "as §1, §2, §3, §4"}, "[3]": {"test_system": "S. aureus", "protocol": "as §1, §2, §3, §4"}, "[4]": {"test_system": "E. coli", "protocol": "as §1, §2, §3, §4"}, "[5]": {"test_system": "C. albicans", "protocol": "as §1, §2, §3, §4"}}}
{"smiles": "CC(=O)CCc1ccc(O)cc1", "note": "[Comparative Example 11, Raspberry ketone]", "values": [{"measurement": "minimum inhibitory concentration (MIC), A. niger", "setting": "[1]", "result": 0.5, "unit": "%"}, {"measurement": "minimum inhibitory concentration (MIC), P. Aeruginosa", "setting": "[2]", "result": 0.1, "unit": "%"}, {"measurement": "minimum inhibitory concentration (MIC), S. Aureus", "setting": "[3]", "result": 0.1, "unit": "%"}, {"measurement": "minimum inhibitory concentration (MIC), E. coli", "setting": "[4]", "result": 0.5, "unit": "%"}, {"measurement": "minimum inhibitory concentration (MIC), C. albicans", "setting": "[5]", "result": 1, "unit": "%"}]}
